Measured values: PubChem BioAssay (NCI)
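In this assay, cells in 96-well plates receive the compound at five concentrations for 48 hours. Endpoints are linearly interpolated between the surrounding concentrations. TGI: total growth inhibition.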 Where a SMILES comes first, the peptide text is derived from it. [ ]: non-standard residue; d: D form. Ac5c = NC1(C(=O)O)CCCC1

Legend:
Experiment in all cases: DTP human tumour cell line panel, 48 h
NCI/ADR-RES ovarian = tested on: NCI/ADR-RES ovarian
CCRF-CEM leukemia = tested on: CCRF-CEM leukemia
HL-60(TB) leukemia = tested on: HL-60(TB) leukemia
HOP-92 NSCLC = tested on: HOP-92 NSCLC
UO-31 renal = tested on: UO-31 renal
CAKI-1 renal = tested on: CAKI-1 renal
RXF 393 renal = tested on: RXF 393 renal
MOLT-4 leukemia = tested on: MOLT-4 leukemia
A549 NSCLC = tested on: A549 NSCLC
OVCAR-5 ovarian = tested on: OVCAR-5 ovarian
SK-MEL-5 melanoma = tested on: SK-MEL-5 melanoma
SR leukemia = tested on: SR leukemia
U251 CNS = tested on: U251 CNS
OVCAR-3 ovarian = tested on: OVCAR-3 ovarian
NCI-H226 lung = tested on: NCI-H226 lung
MDA-N = tested on: MDA-N
HOP-62 NSCLC = tested on: HOP-62 NSCLC
SN12C renal = tested on: SN12C renal
SK-OV-3 ovarian = tested on: SK-OV-3 ovarian
K-562 leukemia = tested on: K-562 leukemia
RPMI-8226 leukemia = tested on: RPMI-8226 leukemia
TK-10 renal = tested on: TK-10 renal
SW-620 colon = tested on: SW-620 colon
SNB-19 CNS = tested on: SNB-19 CNS
SNB-75 CNS = tested on: SNB-75 CNS
IGROV1 ovarian = tested on: IGROV1 ovarian
A498 renal = tested on: A498 renal
PC-3 prostate = tested on: PC-3 prostate
HCC-2998 colon = tested on: HCC-2998 colon
OVCAR-8 ovarian = tested on: OVCAR-8 ovarian
COLO 205 colon = tested on: COLO 205 colon
KM12 colon = tested on: KM12 colon
SK-MEL-2 melanoma = tested on: SK-MEL-2 melanoma
LOX IMVI melanoma = tested on: LOX IMVI melanoma
MALME-3M melanoma = tested on: MALME-3M melanoma
MCF7 breast = tested on: MCF7 breast
SK-MEL-28 melanoma = tested on: SK-MEL-28 melanoma
M14 melanoma = tested on: M14 melanoma
ACHN renal = tested on: ACHN renal
T-47D breast = tested on: T-47D breast
NCI-H460 lung = tested on: NCI-H460 lung
NCI-H23 lung = tested on: NCI-H23 lung
SF-295 CNS = tested on: SF-295 CNS
786-0 renal = tested on: 786-0 renal
SF-539 CNS = tested on: SF-539 CNS
HCT-15 colon = tested on: HCT-15 colon
HCT-116 colon = tested on: HCT-116 colon
SF-268 CNS = tested on: SF-268 CNS
OVCAR-4 ovarian = tested on: OVCAR-4 ovarian
MDA-MB-231 breast = tested on: MDA-MB-231 breast
EKVX NSCLC = tested on: EKVX NSCLC
DU-145 prostate = tested on: DU-145 prostate
MDA-MB-435 = tested on: MDA-MB-435
BT-549 breast = tested on: BT-549 breast
HS 578T breast = tested on: HS 578T breast
NCI-H522 lung = tested on: NCI-H522 lung
HT29 colon = tested on: HT29 colon
UACC-62 melanoma = tested on: UACC-62 melanoma
UACC-257 melanoma = tested on: UACC-257 melanoma

C/C(=N\NC(=O)c1ccncc1)c1cccc(F)c1
TGI (NCI/ADR-RES ovarian): > 10 µM | TGI (CCRF-CEM leukemia): > 10 µM | TGI (HL-60(TB) leukemia): > 10 µM | TGI (HOP-92 NSCLC): > 10 µM | TGI (UO-31 renal): > 10 µM | TGI (CAKI-1 renal): > 10 µM | TGI (RXF 393 renal): > 10 µM | TGI (MOLT-4 leukemia): > 10 µM | TGI (A549 NSCLC): > 10 µM | TGI (OVCAR-5 ovarian): > 10 µM | TGI (SK-MEL-5 melanoma): > 10 µM | TGI (SR leukemia): > 10 µM | TGI (U251 CNS): > 10 µM | TGI (OVCAR-3 ovarian): > 10 µM | TGI (NCI-H226 lung): > 10 µM | TGI (MDA-N): > 10 µM | TGI (HOP-62 NSCLC): > 10 µM | TGI (SN12C renal): > 10 µM | TGI (SK-OV-3 ovarian): > 10 µM | TGI (K-562 leukemia): > 10 µM | TGI (RPMI-8226 leukemia): > 10 µM | TGI (TK-10 renal): > 10 µM | TGI (SW-620 colon): > 10 µM | TGI (SNB-19 CNS): > 10 µM | TGI (SNB-75 CNS): > 10 µM | TGI (IGROV1 ovarian): > 10 µM | TGI (A498 renal): > 10 µM | TGI (PC-3 prostate): > 10 µM | TGI (HCC-2998 colon): > 10 µM | TGI (OVCAR-8 ovarian): > 10 µM | TGI (COLO 205 colon): > 10 µM | TGI (KM12 colon): > 10 µM | TGI (SK-MEL-2 melanoma): > 10 µM | TGI (LOX IMVI melanoma): > 10 µM | TGI (MALME-3M melanoma): > 10 µM | TGI (MCF7 breast): > 10 µM | TGI (SK-MEL-28 melanoma): > 10 µM | TGI (M14 melanoma): > 10 µM | TGI (ACHN renal): > 10 µM | TGI (T-47D breast): > 10 µM | TGI (NCI-H460 lung): > 10 µM | TGI (NCI-H23 lung): > 10 µM | TGI (SF-295 CNS): > 10 µM | TGI (786-0 renal): > 10 µM | TGI (SF-539 CNS): > 10 µM | TGI (HCT-15 colon): > 10 µM | TGI (HCT-116 colon): > 10 µM | TGI (SF-268 CNS): > 10 µM

CCOC(=O)/C(C#N)=C/c1ccc(SCc2ccco2)c([N+](=O)[O-])c1
TGI (NCI/ADR-RES ovarian): > 100 µM | TGI (CCRF-CEM leukemia): > 100 µM | TGI (HL-60(TB) leukemia): > 100 µM | TGI (OVCAR-4 ovarian): > 100 µM | TGI (HOP-92 NSCLC): > 100 µM | TGI (UO-31 renal): > 100 µM | TGI (CAKI-1 renal): > 100 µM | TGI (RXF 393 renal): > 100 µM | TGI (MOLT-4 leukemia): > 100 µM | TGI (MDA-MB-231 breast): > 100 µM | TGI (EKVX NSCLC): > 100 µM | TGI (A549 NSCLC): > 100 µM | TGI (DU-145 prostate): > 100 µM | TGI (OVCAR-5 ovarian): > 100 µM | TGI (SK-MEL-5 melanoma): > 100 µM | TGI (SR leukemia): > 100 µM | TGI (U251 CNS): > 100 µM | TGI (OVCAR-3 ovarian): > 100 µM | TGI (NCI-H226 lung): > 100 µM | TGI (MDA-N): > 100 µM | TGI (HOP-62 NSCLC): > 100 µM | TGI (SN12C renal): > 100 µM | TGI (MDA-MB-435): > 100 µM | TGI (SK-OV-3 ovarian): > 100 µM | TGI (K-562 leukemia): > 100 µM | TGI (RPMI-8226 leukemia): > 100 µM | TGI (SW-620 colon): > 100 µM | TGI (SNB-19 CNS): > 100 µM | TGI (SNB-75 CNS): > 100 µM | TGI (IGROV1 ovarian): > 100 µM | TGI (A498 renal): > 100 µM | TGI (PC-3 prostate): > 100 µM | TGI (HCC-2998 colon): > 100 µM | TGI (BT-549 breast): > 100 µM | TGI (OVCAR-8 ovarian): > 100 µM | TGI (COLO 205 colon): > 100 µM | TGI (KM12 colon): > 100 µM | TGI (HS 578T breast): > 100 µM | TGI (NCI-H522 lung): > 100 µM | TGI (SK-MEL-2 melanoma): > 100 µM | TGI (LOX IMVI melanoma): > 100 µM | TGI (MALME-3M melanoma): > 100 µM | TGI (MCF7 breast): > 100 µM | TGI (SK-MEL-28 melanoma): > 100 µM | TGI (M14 melanoma): > 100 µM | TGI (ACHN renal): > 100 µM | TGI (NCI-H460 lung): > 100 µM | TGI (HT29 colon): > 100 µM | TGI (NCI-H23 lung): > 100 µM | TGI (UACC-62 melanoma): > 100 µM | TGI (SF-295 CNS): > 100 µM | TGI (786-0 renal): > 100 µM | TGI (UACC-257 melanoma): > 100 µM | TGI (SF-539 CNS): > 100 µM | TGI (HCT-116 colon): > 100 µM | TGI (SF-268 CNS): > 100 µM

COC(=O)C1(NC(=O)C(C)NC(=O)C(CCCCN)NC(=O)C(CC(C)C)NC(C)=O)CCCC1 (stereo unspecified) (Ac-LKA[Ac5c]-OMe; configuration not given here)
TGI (CCRF-CEM leukemia): > 100 µM | TGI (HL-60(TB) leukemia): > 100 µM | TGI (UO-31 renal): > 100 µM | TGI (MOLT-4 leukemia): > 100 µM | TGI (MDA-MB-231 breast): > 100 µM | TGI (EKVX NSCLC): > 100 µM | TGI (A549 NSCLC): > 100 µM | TGI (SK-MEL-5 melanoma): > 100 µM | TGI (SR leukemia): > 100 µM | TGI (MDA-N): > 100 µM | TGI (HOP-62 NSCLC): > 100 µM | TGI (SN12C renal): > 100 µM | TGI (MDA-MB-435): > 100 µM | TGI (SK-OV-3 ovarian): > 100 µM | TGI (K-562 leukemia): > 100 µM | TGI (RPMI-8226 leukemia): > 100 µM | TGI (TK-10 renal): > 100 µM | TGI (SW-620 colon): > 100 µM | TGI (SNB-19 CNS): > 100 µM | TGI (SNB-75 CNS): > 100 µM | TGI (IGROV1 ovarian): > 100 µM | TGI (PC-3 prostate): > 100 µM | TGI (HCC-2998 colon): > 100 µM | TGI (OVCAR-8 ovarian): > 100 µM | TGI (COLO 205 colon): > 100 µM | TGI (KM12 colon): > 100 µM | TGI (HS 578T breast): > 100 µM | TGI (NCI-H522 lung): > 100 µM | TGI (MCF7 breast): > 100 µM | TGI (SK-MEL-28 melanoma): > 100 µM | TGI (M14 melanoma): > 100 µM | TGI (ACHN renal): > 100 µM | TGI (T-47D breast): > 100 µM | TGI (NCI-H460 lung): > 100 µM | TGI (HT29 colon): > 100 µM | TGI (SF-295 CNS): > 100 µM | TGI (786-0 renal): > 100 µM | TGI (UACC-257 melanoma): > 100 µM | TGI (SF-539 CNS): > 100 µM | TGI (HCT-15 colon): > 100 µM | TGI (HCT-116 colon): > 100 µM | TGI (SF-268 CNS): > 100 µM
